Experimental data taken from publication PMC3901259, “Characterisation of the Metabolites of 1,8-Cineole Transferred into Human Milk: Concentrations and Ratio of Enantiomers” (Metabolites, 2013).

Assay: Quantification of 1,8-cineole metabolites in human milk (SAFE, GC-MS, internal standard and matrix calibration) after oral intake of 100 mg 1,8-cineole
Format: in vivo
Conditions: for Absolute concentration in human milk: single determination
Summary of the method: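 Lactating mothers took one capsule with 100 mg 1,8-cineole orally; milk expressed after eucalyptus odour noticed on breath (14 samples, 8 donors). Volatiles isolated by SAFE at 50 °C with deuterated 1,8-cineole internal standard, concentrated, and quantified by GC-MS on DB-FFAP and DB-5 columns; chiral columns for enantiomer ratios.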

Concentration range in human milk (abstract/conclusions) (after oral 100 mg 1,8-cineole, rounded summary): 100 to 250 µg/kg
Share of the metabolites on average (human milk, roughly estimated): about 70%
Estimated maximum level in human milk (concentration calculated with the last calibration point, in parentheses) (sample A-1a (no odour)): < 1.37 µg/kg
Absolute concentration in human milk (sample A-1a (no odour), oral 100 mg 1,8-cineole, values given with (<x) lie beyond calibration range, approximation): 0.65 µg/kg
Absolute concentration in human milk (sample A-1b (odour yes), oral 100 mg 1,8-cineole, values given with (<x) are approximations): 138.10 µg/kg
Absolute concentration in human milk (sample B-1 (odour yes), oral 100 mg 1,8-cineole, values given with (<x) are approximations): 176.30 µg/kg
Absolute concentration in human milk (sample B-2a (no odour), oral 100 mg 1,8-cineole): 0.61 µg/kg
Absolute concentration in human milk (sample B-2b (odour yes), oral 100 mg 1,8-cineole, values given with (<x) are approximations): 113.55 µg/kg
Absolute concentration in human milk (sample B-2c (no odour), oral 100 mg 1,8-cineole): 29.25 µg/kg
Absolute concentration in human milk (sample C (no odour; very weak odour not caused by 1,8-cineole), oral 100 mg 1,8-cineole, values given with (<x) are approximations): 7.68 µg/kg
Absolute concentration in human milk (sample D-1 (no odour), oral 100 mg 1,8-cineole, values given with (<x) are approximations): 15.08 µg/kg
Absolute concentration in human milk (sample D-2 (odour yes), oral 100 mg 1,8-cineole, values given with (<x) are approximations): 135.98 µg/kg
Absolute concentration in human milk (sample E-1 (no odour), oral 100 mg 1,8-cineole, values given with (<x) are approximations): 2.02 µg/kg
Absolute concentration in human milk (sample E-2 (odour yes), oral 100 mg 1,8-cineole, values given with (<x) are approximations): 233.31 µg/kg
Absolute concentration in human milk (sample F (no odour), parent ingested two capsules, values given with (<x) are approximations): 3.16 µg/kg
Absolute concentration in human milk (sample G (odour yes), oral 100 mg 1,8-cineole, values given with (<x) are approximations): 98.83 µg/kg
Absolute concentration in human milk (sample H (odour yes), oral 100 mg 1,8-cineole, values given with (<x) are approximations): 206.09 µg/kg
Concentration range in human milk samples (seven positive samples (eucalyptus-like odour), Figure 2): 99 to 233 µg/kg
Compound: CC1(C)OC2(C)CCC1CC2O (stereo not drawn) [a2-hydroxy-1,8-cineole, α2-hydroxy-1,8-cineole]
